ChEMBL document CHEMBL1201862, “PubChem BioAssay data set” (2004)
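Growth conditions: 96-well plates. Treatment: test compound, 48 hours, 5 concentrations. Analysis: linear interpolation between bracketing concentrations; unreached endpoints set to highest concentration. Here, GI50 denotes the concentration required for 50% inhibition of growth.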 Active and inactive are the calls of the source. No stated cut-off is given here; in the data, active = GI50 up to about 1.1 µM and inactive = higher.

Legend:
Experiment in all cases: growth of human tumour cells (NCI), 48 h
SR = system: SR
SK-MEL-2 = system: SK-MEL-2
786-0 = system: 786-0
OVCAR-5 = system: OVCAR-5
DMS-114 = system: DMS-114
HCC 2998 = system: HCC 2998
HOP-92 = system: HOP-92
NCI-H226 = system: NCI-H226
NCI/ADR-RES = system: NCI/ADR-RES
OVCAR-4 = system: OVCAR-4
MCF7 = system: MCF7
COLO 205 = system: COLO 205
CAKI-1 = system: CAKI-1
MDA-MB-231 = system: MDA-MB-231
DU-145 = system: DU-145
Hs-578T = system: Hs-578T
MDA-MB-435 = system: MDA-MB-435
T47D = system: T47D
MDA-N = system: MDA-N
PC-3 = system: PC-3

| Structure (SMILES) | GI50 (SR) | GI50 (SK-MEL-2) | GI50 (786-0) | GI50 (OVCAR-5) | GI50 (DMS-114) | GI50 (HCC 2998) | GI50 (HOP-92) | GI50 (NCI-H226) | GI50 (NCI/ADR-RES) | GI50 (OVCAR-4) | GI50 (MCF7) | GI50 (COLO 205) | GI50 (CAKI-1) | GI50 (MDA-MB-231) | GI50 (DU-145) | GI50 (Hs-578T) | GI50 (MDA-MB-435) | GI50 (T47D) | GI50 (MDA-N) | GI50 (PC-3) |
| --- | --- | --- | --- | --- | --- | --- | --- | --- | --- | --- | --- | --- | --- | --- | --- | --- | --- | --- | --- | --- |
| Cc1ccc(C2NC(=O)c3ccccc3N2)s1 (stereo not given) | 8.3 µM (inactive) | 3.75 µM (inactive) | 5.69 µM (inactive) | 10 µM (inactive) | 5.21 µM (inactive) | 7.05 µM (inactive) |  |  |  |  |  |  |  |  |  |  |  |  |  |  |
| C=CC[N+](CCO)(CCO)CCCCCCCCCCCCCCCCCC |  | 14.5 µM (inactive) |  | 14 µM (inactive) | 3.96 µM (inactive) | 3.23 µM (inactive) | 1.5 µM (inactive) | 7.78 µM (inactive) | 23.5 µM (inactive) | 3.88 µM (inactive) | 7.1 µM (inactive) | 3.36 µM (inactive) | 4.46 µM (inactive) |  |  |  |  |  |  |  |
| C/C=C/c1cc2c(c(=O)o1)C(=O)[C@@H](O)[C@H](C)O2 |  | 18.8 µM (inactive) |  | 17.2 µM (inactive) | 6.75 µM (inactive) | 10.3 µM (inactive) | 16.9 µM (inactive) | 16.9 µM (inactive) | 15.9 µM (inactive) | 15.4 µM (inactive) | 4.08 µM (inactive) | 11.4 µM (inactive) | 17.3 µM (inactive) |  |  |  |  |  |  |  |
| C=CCCCCn1c2ccccc2c2c(C)c3cnccc3c(C)c21 |  | 13.4 µM (inactive) |  | 16.9 µM (inactive) | 3.94 µM (inactive) | 10.1 µM (inactive) | 4.06 µM (inactive) | 10.9 µM (inactive) | 5.07 µM (inactive) | 6.5 µM (inactive) | 7.73 µM (inactive) | 3.96 µM (inactive) | 8.69 µM (inactive) |  |  |  |  |  |  |  |
| CCOC(=O)C1(Cc2ccc3ccccc3c2)CCCCC(=O)N1 (stereo not given) |  |  | 38.8 µM (inactive) |  | 18.6 µM (inactive) | 8.67 µM (inactive) | 13.1 µM (inactive) |  |  | 36.1 µM (inactive) |  | 39.1 µM (inactive) | 43.1 µM (inactive) |  |  |  |  |  |  |  |
| OCc1ccccc1C1CSCSC1 |  | > 100 µM (inactive) |  |  | > 100 µM (inactive) |  |  | > 100 µM (inactive) |  | > 100 µM (inactive) |  |  |  |  |  |  |  |  |  |  |
| COc1ccc2[nH]cc(C=C3C(=O)NC(=S)NC3=O)c2c1 | 30.1 µM (inactive) | 92.3 µM (inactive) | 31.6 µM (inactive) | > 100 µM (inactive) |  | > 100 µM (inactive) | 73.6 µM (inactive) | > 100 µM (inactive) | > 100 µM (inactive) | > 100 µM (inactive) | > 100 µM (inactive) | > 100 µM (inactive) | > 100 µM (inactive) | 48.6 µM (inactive) | > 100 µM (inactive) | 45.8 µM (inactive) | > 100 µM (inactive) | > 100 µM (inactive) | > 100 µM (inactive) | > 100 µM (inactive) |
| CC1=C2[C@@H](c3ccccc3)C3C=CC2(C=C3C(F)(F)F)N(C(=O)NC2CCCCC2)C1=O (stereo not given in full) | 15.8 µM (inactive) |  | 78 µM (inactive) | > 100 µM (inactive) | 35.1 µM (inactive) | 38.9 µM (inactive) | > 100 µM (inactive) |  |  | > 100 µM (inactive) |  | > 100 µM (inactive) | 51.8 µM (inactive) |  |  |  |  |  |  |  |
| COc1ccc(/C=N/n2cnc3[nH]c(C)c(Cc4ccccc4)c3c2=N)cc1 | > 100 µM (inactive) | > 100 µM (inactive) | > 100 µM (inactive) | > 100 µM (inactive) |  | > 100 µM (inactive) | 29.2 µM (inactive) | > 100 µM (inactive) | > 100 µM (inactive) | > 100 µM (inactive) | 39.1 µM (inactive) | 75.9 µM (inactive) | > 100 µM (inactive) | 68.4 µM (inactive) | > 100 µM (inactive) | 80.9 µM (inactive) | > 100 µM (inactive) | 30.1 µM (inactive) | > 100 µM (inactive) | > 100 µM (inactive) |
| COc1ccc2c(c1)CCC(CN1CCN(CCOC(c3ccccc3)c3ccccc3)CC1)C2O (stereo not given) | 16.7 µM (inactive) | 17.5 µM (inactive) | 16.6 µM (inactive) | 16.6 µM (inactive) |  | 4.28 µM (inactive) | 14.4 µM (inactive) | 16.3 µM (inactive) | 13.8 µM (inactive) | 15.9 µM (inactive) | 18.9 µM (inactive) | 12.6 µM (inactive) | 15.7 µM (inactive) | 15.7 µM (inactive) | 20.1 µM (inactive) | 19.3 µM (inactive) | 16.6 µM (inactive) | 16.1 µM (inactive) | 14.3 µM (inactive) | 13.5 µM (inactive) |
| Nc1c2c(=O)[nH]c(=O)c2c(N)c2c(=O)c3ccccc3c(=O)c12 | 2.74 µM (inactive) | 2.07 µM (inactive) | 2.69 µM (inactive) | 1.82 µM (inactive) |  | 4.48 µM (inactive) | 12.9 µM (inactive) | 1.85 µM (inactive) | 2.11 µM (inactive) | 1.21 µM (inactive) | 1.16 µM (inactive) | 0.687 µM (active) | 3.5 µM (inactive) | 3.02 µM (inactive) | 1.56 µM (inactive) | 2.62 µM (inactive) | 0.478 µM (active) | 3.94 µM (inactive) | 0.212 µM (active) | 2.49 µM (inactive) |
| O=P(O)(O)CN1CCN(CP(=O)(O)O)CCN(CP(=O)(O)O)CCN(CP(=O)(O)O)CC1 | 10.5 µM (inactive) | 32.8 µM (inactive) | > 100 µM (inactive) | 73.8 µM (inactive) |  | 88.7 µM (inactive) | 38.3 µM (inactive) | > 100 µM (inactive) | > 100 µM (inactive) | > 100 µM (inactive) | 53.6 µM (inactive) | 32.4 µM (inactive) | > 100 µM (inactive) | > 100 µM (inactive) | > 100 µM (inactive) | > 100 µM (inactive) | > 100 µM (inactive) | > 100 µM (inactive) | 79.4 µM (inactive) | 87.3 µM (inactive) |
| Cn1cc(C(=O)c2ccccc2)ccc1=O | > 100 µM (inactive) | > 100 µM (inactive) | > 100 µM (inactive) | > 100 µM (inactive) | > 100 µM (inactive) | > 100 µM (inactive) | > 100 µM (inactive) | > 100 µM (inactive) |  | > 100 µM (inactive) |  | > 100 µM (inactive) | > 100 µM (inactive) |  |  |  |  |  |  |  |
| Nc1c(/N=N/c2ccc(-c3ccc(/N=N/c4c(O)ccc5cc(S(=O)(=O)O)cc(S(=O)(=O)O)c45)cc3)cc2)c(S(=O)(=O)O)cc2cc(S(=O)(=O)O)c(/N=N/c3ccccc3)c(O)c12 |  | > 100 µM (inactive) |  | > 100 µM (inactive) | > 100 µM (inactive) | > 100 µM (inactive) | > 69.7 µM (inactive) | 19.6 µM (inactive) | > 100 µM (inactive) | > 100 µM (inactive) | > 100 µM (inactive) | > 100 µM (inactive) |  |  |  |  |  |  |  |  |
| O=C(/C(=C/c1ccc(O)cc1)c1ccccc1)c1ccccc1 | 23.8 µM (inactive) | 11.6 µM (inactive) | 18.5 µM (inactive) | 17 µM (inactive) | 11.5 µM (inactive) | 17.4 µM (inactive) | 5.65 µM (inactive) | 16.7 µM (inactive) |  | 21.9 µM (inactive) |  | 17.5 µM (inactive) | 19.1 µM (inactive) |  |  |  |  |  |  |  |
| COc1cc(C2c3cc(OC)c(OC)c(O)c3C(=O)C3CCC(=O)N32)cc(OC)c1OC (stereo not given) | 89.7 µM (inactive) | > 100 µM (inactive) | > 100 µM (inactive) | > 100 µM (inactive) |  | > 100 µM (inactive) | 35.3 µM (inactive) | 10.9 µM (inactive) | 22 µM (inactive) | > 100 µM (inactive) | > 100 µM (inactive) | 24.8 µM (inactive) | > 100 µM (inactive) | 44.1 µM (inactive) | > 100 µM (inactive) | 56.4 µM (inactive) | 16.2 µM (inactive) | > 100 µM (inactive) | 18.2 µM (inactive) | > 100 µM (inactive) |
| CCCCCCCCCC/C=C/C=O | > 100 µM (inactive) | > 100 µM (inactive) |  | > 100 µM (inactive) | > 100 µM (inactive) | > 100 µM (inactive) | > 100 µM (inactive) |  |  |  |  | > 100 µM (inactive) |  |  |  |  |  |  |  |  |
| OC(c1ccoc1)c1cc2ccccc2s1 (stereo not given) | > 10 µM (inactive) | > 10 µM (inactive) | > 10 µM (inactive) | > 10 µM (inactive) |  | > 10 µM (inactive) | > 10 µM (inactive) | > 10 µM (inactive) | > 10 µM (inactive) | > 10 µM (inactive) | > 10 µM (inactive) | > 10 µM (inactive) | > 10 µM (inactive) | > 10 µM (inactive) | > 10 µM (inactive) | > 10 µM (inactive) | > 10 µM (inactive) | > 10 µM (inactive) | > 10 µM (inactive) | > 10 µM (inactive) |
| CCOC(=O)C(=O)Nc1ccccc1CC |  | > 100 µM (inactive) | > 100 µM (inactive) | > 100 µM (inactive) | > 100 µM (inactive) | > 100 µM (inactive) | > 100 µM (inactive) | > 100 µM (inactive) |  | > 100 µM (inactive) |  |  | > 100 µM (inactive) |  |  |  |  |  |  |  |
